Data from US20230221321A1, “METHOD FOR IDENTIFYING COMPOUNDS USEFUL FOR THE TREATMENT OF CANCER” (UNIVERSITÉ PARIS-SACLAY, priority 2020, published 2023).
Where a name gives a salt, the structure may show the parent alone. Read-outs that look alike come from different tables or passages of the source.

B1: CHCHD4 protein (coiled-coil-helix-coiled-coil-helix domain containing 4) (other)
chain: MSYCRQEGKDRIIFVTKEDHETPSSAELVADDPNDPYEEHGLILPNGNINWNCPCLGGMASGPCGEQFKSAFSCFHYSTEEIKGSDCVDQFRAMQECMQKYPDLYPQEDEDEEEEREKKPAEQAEETAPIEATATKEEEGSS
notes: In SPR the protein was coupled covalently to a CM5 chip; also called MIA40; mitochondrial intermembrane space import and assembly protein 40

Tests used:
[1] = system: A549 non-small-cell lung cancer cells; assay: Cytotoxicity by lactate dehydrogenase (LDH) release in A549 cells; assay type: cell-based, human; settings: A549, 3 h treatment; lowest dose tested for which a toxicity greater than 20% was measured
Procedure: The effect of the compounds on the metabolism of a non-small-cell lung cancer cell line (A549) was tested using the Seahorse technology (XFe96, Agilent) and the cell death was evaluated by measuring the release of lactate dehydrogenase (LDH, Promega). The cells seeded into 96-well microplates (20 000 cells/well) were treated with the compounds as a dose response (0.03; 0.1; 0.3; 1; 3; 10 µM) for 3 h in serum-free DMEM medium and then mitochondrial respiration (OXPHOS) and glycolysis were measured in real time. At the end of the experiment, the culture supernatant was removed in order to analyze the cell death, and the number of cells was determined by counting, after labelling the cells with DAPI, using a fluorescence microscope (Zeiss). The number of cells per well at the end of the experiment was then used to normalize the results obtained by Seahorse.
The compound concentration indicated in the “toxicity” column represents the lowest dose tested for which a toxicity greater than 20% was measured.

[2] = target: T1, AIF/CHCHD4 (Homo sapiens, UniProt O95831); assay: AlphaScreen (ALPHA) assay of the AIF103-613/CHCHD4 interaction; assay type: binding
T1 construct: The AIF103-613 protein (AIF protein fragment 103-613) and CHCHD4 protein were produced in BL21 + DE3 bacteria; made in house; host or cells: E. coli BL21 + DE3 (RIPL)
T1 sequence (O95831 103-613 limits assumed): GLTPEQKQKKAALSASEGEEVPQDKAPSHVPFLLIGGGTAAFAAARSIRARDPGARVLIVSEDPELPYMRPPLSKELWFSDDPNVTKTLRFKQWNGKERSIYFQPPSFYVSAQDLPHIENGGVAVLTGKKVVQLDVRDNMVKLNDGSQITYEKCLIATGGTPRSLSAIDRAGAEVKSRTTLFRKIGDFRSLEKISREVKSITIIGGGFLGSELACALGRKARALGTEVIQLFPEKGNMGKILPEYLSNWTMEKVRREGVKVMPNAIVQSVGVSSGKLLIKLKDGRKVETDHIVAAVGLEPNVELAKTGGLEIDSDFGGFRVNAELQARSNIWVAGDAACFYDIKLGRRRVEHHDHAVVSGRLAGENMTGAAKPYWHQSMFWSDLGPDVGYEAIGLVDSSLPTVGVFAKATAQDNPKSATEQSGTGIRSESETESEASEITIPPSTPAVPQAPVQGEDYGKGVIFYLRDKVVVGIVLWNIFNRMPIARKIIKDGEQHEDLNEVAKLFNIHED
Source text: This method comprises the use: • of the AIF103-613 and CHCHD4 proteins previously produced; • of an AlphaScreen® kit (PerkinElmer) comprising donor beads and acceptor beads capable of conjugating to the AIF and CHCHD4 proteins; • of a positive control: the N27 peptide (corresponding to the 27 amino acids of the N-ter end of the CHCHD4 protein, as described in Hangen et al., 2015); • of a negative control: 0.1% bovine serum albumin (BSA) solution in phosphate buffered saline (PBS); • of a library of compounds to be tested: the Prestwick chemical compound library (Prestwick Chemical Library®) .
The ALPHA assay was first of all carried out at high throughput, using 384-well white microplates (Greiner, reference 781075), using 25 µl of total volume per well. The proteins, the positive control and the beads were diluted in a 0.1% BSA/PBS solution. All the distributions were carried out with an electronic multipipet, then the plates were centrifuged (200 g, 1 min). The plates were hermetically closed and incubated in the dark in a room at 23° C.
A library of 1280 small molecules, supplied by Prestwick Chemicals (Prestwick Chemical Library®) was screened. This library comprises compounds with various chemical and pharmacological properties, which are already approved by the health authorities, such as the FDA (Food and Drug Administration) or the EMEA (European Medicines Evaluation Agency). Each compound of the library is diluted in a 0.1% DMSO solution and used at a concentration of 10 µM. First of all, 5 µl of compound at […], of N27 at 3 µM (positive control) or of 0.1% BSA/PBS (negative control) were added to the wells. Secondly, 5 µl of AIF103-613 proteins were incubated with the compounds for 20 min before the addition of 5 µl of CHCHD4 for 2 h. Thirdly, 10 µl of a mixture of donor beads and acceptor beads at […] were incubated for 3 h. The analysis of the results was carried out by means of an EnSpire® multimode plate reader (PerkinElmer).
For each 384-well plate, 16 wells correspond to the positive control and 16 wells correspond to the negative control. The positive control corresponds to the measurement of the interaction of the AIF103-613 and CHCHD4 proteins in the presence of the N27 peptide (equivalent to the minimal signal). The negative control corresponds to the measurement of the interaction of the AIF103-613 and CHCHD4 proteins in the presence of the buffer (0.1% BSA/PBS) (equivalent to the maximum signal).
Following the high-throughput screening, the compounds are selected if the signal obtained in the presence of the compound is less than the following threshold TH:
For each compound previously selected, the ALPHA assay is repeated manually using another batch of powder of the compounds.
Each compound is tested at 10 µM and 30 µM due to the Hook effect particular to the ALPHAscreen technology and in order to select the compounds giving a signal located in the ascending part of the Hook bell and therefore active at low dose in a drug development perspective.
The compound is selected if: • the signal obtained in the presence of the compound is less than the threshold TH as described above; and • the signal obtained at 30 µM is less than the signal obtained at 10 µM.
In addition, for each compound thus selected, the dose-effect relationship of the compound is determined. This makes it possible to determine the median inhibitory concentration (IC50) of said compound.

[3] = target: T2, AIF103-613/CHCHD4 (Homo sapiens, UniProt O95831); assay: Surface plasmon resonance (SPR, Biacore) assay of the AIF/CHCHD4 interaction; assay type: binding; settings: compound preincubated 20 min with AIF, injected onto immobilized CHCHD4; criterion at least 50% of the inhibition obtained with N27 peptide
T2 construct: The AIF103-613 protein (AIF protein fragment 103-613) and CHCHD4 protein were produced in BL21 + DE3 bacteria; made in house; host or cells: E. coli BL21 + DE3 (RIPL)
T2 sequence (O95831 103-613 limits assumed): as above
Procedure: FIG. 3: SPR analysis of the compounds identified by Alphascreen. (A) SPR validation of thioridazine and of mitoxantrone, by means of the […], as inhibitors of the AIF103-613/CHCHD4 interaction. The compounds at 10 µM were incubated for 20 min with AIF in DPBS at pH 7.4 at ambient temperature. Then, the mixture was then injected for 3 minutes at a rate of 30 µl per minute onto the CHCHD4 protein. The N27 peptide at 3 µM was used as a […]. (B) Surface plasmon resonance (SPR) sensorgrams, making it possible to follow the binding of AIF103-613 to CHCHD4 in the presence of thioridazine hydrochloride or of mitoxantrone dihydrochloride. The thioridazine hydrochloride and the mitoxantrone dihydrochloride were tested at increasing concentrations ranging from 0.5 µM to 50 µM.
Some of the compounds identified by means of the Alpha assay as described above were tested by surface plasmon resonance (Biacore™ T100, GE Healthcare Life Sciences). The CHCHD4 protein was immobilized covalently on a dextran matrix comprising COOH functional carboxyl groups (Series S CM5® sensor chip, GE Healthcare Life Sciences, 29149603). […]
The sensorgrams were analyzed using the BIAevaluation software (Version 2.0.4).
The inhibition of the interaction of the AIF and CHCHD4 proteins by thioridazine and mitoxantrone was analyzed by means of a surface plasmon resonance assay (cf. FIG. 3). […]

[4] = target: T3, AIF103-613 protein (AIF protein fragment 103-613) (human, UniProt O95831 103-613); assay: AlphaScreen cross-titration
T3 construct: also called apoptosis-inducing factor
T3 sequence (O95831 103-613): as the sequence (O95831 103-613 limits assumed) above

[5] = obtained manually using the Alphascreen assay, read-out: IC50 AIF/CHCHD4

Row | Molecule | Cellular toxicity [1] [µM] | IC50 [2, 5] [µM] | IC50 [2] [µM] | inhibition of the interaction between the AIF and CHCHD4 proteins (SPR) [3] | binding result [4]
1 | COC(=O)C1=C(C)NC(C)=C(C(=O)OC2CCCN(Cc3ccccc3)C2)[C@@H]1c1cccc([N+](=O)[O-])c1 (stereo partly shown) [Benidipine hydrochloride] | 10 | 8 |  |  | 
2 | COc1cc(-c2ccc(N=Nc3ccc4c(S(=O)(=O)O)cc(S(=O)(=O)O)c(N)c4c3O)c(OC)c2)ccc1N=Nc1ccc2c(S(=O)(=O)O)cc(S(=O)(=O)O)c(N)c2c1O [Chicago sky blue 6B] |  | 1.44 |  |  | 
3 | CCN(CC)C(=S)SSC(=S)N(CC)CC [Disulfiram] | 3 | 0.415 |  |  | 
4 | O=C1OC2(c3cc(Br)c(O)cc3Oc3c2cc(Br)c(O)[c]3[Hg][OH])c2ccccc21 (stereo not shown) [Merbromine] |  |  | 0.169 |  | 
5 | CO[C@H]1/C=C/O[C@@]2(C)Oc3c(C)c(O)c4c(O)c(c(/C=N/N5CCN(C6CCCC6)CC5)c(O)c4c3C2=O)NC(=O)/C(C)=C\C=C\[C@H](C)[C@H](O)[C@@H](C)[C@@H](O)[C@@H](C)[C@H](OC(C)=O)[C@@H]1C [Rifapentine] | 10 | 4.8 |  |  | 
6 | NCCNCCNCCNCCN [Tetraethylenepentamine pentahydrochloride] | 10 | 9 |  |  | 
7 | CCSc1ccc2c(c1)N(CCCN1CCN(C)CC1)c1ccccc1S2.O=C(O)CC(O)C(=O)O.O=C(O)CC(O)C(=O)O [Thiethylperazine dimalate] | 10 | 10.6 |  |  | 
8 | CSc1ccc2c(c1)N(CCC1CCCCN1C)c1ccccc1S2 (stereo not shown) [Thioridazine hydrochloride] | 1 | 24 |  | capable of inhibiting the interaction | 
9 | Bromocriptine mesylate | 3 | 4.57 |  |  | 
10 | Mitoxantrone dihydrochloride | 3 | 1.27 |  | capable of inhibiting the interaction | 
11 | Nisoldipine |  | 12 |  |  | 
12 | B1 |  |  |  |  | binds
